Measurements: patent US20080313748A1, “Transgenic Non-Human Animals Comprising the Human Udp-Glucuronosyltransferase 1A (Ugt1a) Gene Locus and Methods of Using Them” (priority 2004, published 2008)
Where “and” joins values, the source holds several entries; their conditions need not be identical. Identical values can stand only once. Entries after “also recorded” stand apart in the source; their conditions may differ. Like-named read-outs stand apart in the source and are kept apart here.

Key:
β-estradiol UGT activity [1] = assay: β-estradiol UGT activity in intestinal microsomes from PCN and TCDD treated Tg-UGT1c mice; format: in vivo, mouse; conditions: for Induction of β-estradiol glucuronidation: large intestine microsomes, Tg-UGT1c mice
Method: (§1) Microsomal Protein Isolation from Transgenic Mouse Tissues.
(§2) Reactions were terminated by the addition of 100 μl of methanol followed by centrifugation at top speed for 15 minutes. A 100 μl sample of the quenched reaction was spotted onto pre-adsorbent area of the TLC plate and develop in n-butanol/acetone/acetic acid/water (35:35:10:20) to achieve separation. ^14C-Labeled glucuronides were visualized with a STORM 820™ PhosphorImager (Molecular Dynamics/Amersham Biosciences). Silica gel in regions corresponding to the glucuronide bands were then scraped from the TLC plates, radioactivity measured by liquid scintillation counting, and specific catalytic activities were calculated in picomoles of glucuronide formed/mg of protein/min.
(§3) Values are the mean±S.E.M from triplicate experiments.

β-estradiol UGT activity [2] = assay: β-estradiol UGT activity in intestinal microsomes from PCN treated wild type mice; format: in vivo, mouse; conditions: WT mice
Method: as §1, §2, §3

mouse Cyp3a11 = assay: Cyp3a11 RT-PCR in primary hepatocytes from Tg-UGT1c mice; conditions: primary hepatocytes treated with PCN
UGT1A1 = test system: UGT1A1
Method: (§4) Immunoblot Analysis. All Western blots were performed using NuPAGE Bis-Tris polyacrylamide gels as outlined by the supplier (Invitrogen, Carlsbad, Calif.). Protein was heated at 70° C. for 10 min in loading buffer and resolved in 4-12% Bis-Tris gels under denaturing conditions (50 mM MOPS, 50 mM Tris-base, pH 7.7, 0.1% SDS, 1 mM EDTA) prior to transferring the proteins to polyvinylidene difluoride membrane using a semidry transfer system (Norvex, England). The membrane was blocked with 5% nonfat dry milk in 10 mM Tris-HCl, pH7.4 containing 0.15 M NaCl and 0.05% Tween 20 (Tris-buffered saline) for 1 h at room temperature, followed by incubation with primary antibodies (mouse anti-human UGT1A1, UGT1A4 or UGT1A6) in Tris-buffered saline overnight at 4° C. Membranes were washed and exposed to horseradish peroxidase-conjugated secondary antibodies for 1 h at room temperature. Each membrane was again washed and the conjugated horseradish peroxidase was detected using the ECL plus Western blotting detection system (Amersham) and the proteins detected following exposure to X-ray film.

[3] = test system: UGT1A gene transcripts (human UGT1 locus); assay: Isoform-specific RT-PCR of UGT1A gene transcripts in tissues of treated Tg-UGT1c mice; format: in vivo, mouse; conditions: for UGT1A1 RNA induction / UGT1A4 RNA / UGT1A6 RNA induction / UGT1A gene transcript induction: RT-PCR; for UGT1A gene transcript induction: small and large intestine, i.p. 3 days
Method: Analysis of UGT1 gene expression patterns by reverse transcription-PCR: For RNA isolation from transgenic and wild type (WT) mouse tissues, the tissues from three animals were combined as described in the methods that outline the preparation of microsomal proteins. After pulverizing in liquid nitrogen, approximately 100 mg of tissue was homogenized in 1 ml of TRIzol™ solution, and the RNA extracted following the manufacturer's instructions. For each reverse transcription reaction, 2 μg of total RNA was denatured by heating and cDNA synthesized in 20 μl using the Omniscript RT™ kit (Qiagen) according to the manufacturer's instructions. From this reaction, 2 μl of the cDNA reaction was employed in each PCR reaction. Each PCR reaction contained 0.2 μM of mouse β-actin primers, 0.4 μM of each of the UGT1A specific oligonucleotide primer pair (11;15;50), and 15 μl HOTSTART MASTERMIX™ (Qiagen) in a 30 μl reaction. For UGT1A1, UGT1A3, UGT1A4, UGT1A5, UGT1A6, UGT1A7, UGT1A9 and UGT1A10 the polymerase was activated at 95° C. for 15 minutes followed by 30 cycles of 95° C. for 30 sec, 63° C. for 30 sec, and 72° C. for 45 sec, and a final extension at 72° C. for seven minutes. For UGT1A8 PCR amplification, the polymerase was activated at 95° C. for 15 min followed by 30 cycles of 95° C. for 30 sec, 58° C. for 30 sec, and 72° C. for 45 sec, and a final extension at 72° C. for seven minutes. Analysis of expressed RNA included an antisense oligonucleotide specific for the common region that encoded exon 2, while all of the sense primers encoded a highly specific segment of each exon 1 sequence that allowed for the unique identification of each UGT1A RNA. PCR reactions were carried out in a PerkinElmer Life Sciences GENEAMP™ DNA thermocycler PCR system. Ten microliters of each PCR product was resolved on a 1.5% agarose gel containing 1 μg/ml ethidium bromide and photographed using Polaroid 665 positive/negative film (Polaroid, Cambridge, Mass.).
(§5) For both TCDD and PCN, the administration was by the intraperitoneal route, and each mouse was treated every 24 hours over a three day period. Tissues from three mice were then pooled and pulverized under liquid nitrogen, and samples used for microsomal preparation as well as for the isolation of total RNA.
(§6) Three Tg-UGT^1c or wild type (WT) mice were treated by intraperitoneal injection every 24 hours with either DMSO, TCDD (16 μg/kg) or PCN (10 mg/kg) for 3 days. After 72 hours, the small intestines from each treatment group were combined and the large intestines from each treatment group were combined and the tissues pulverized under liquid nitrogen. A sample of each tissue was then used to prepare microsomes or to isolate total RNA. FIG. 4A: Western blot analysis of small and large intestinal microsomal protein using UGT1A1-, UGT1A4- or UGT1A6 specific antibodies. Included as control is a sample of each protein generated from the expression of cDNAs in stably transfected HEK293 cells. FIG. 4B: RNA prepared from the same samples of tissue were used in RT-PCR studies and the isoform specific products identified in ethidium bromide stained agarose gels.
Induction of the UGT1 locus in liver by PCN and TCDD. […] Wild type and Tg-UGT^1c mice were treated every 24 hours with TCDD (16 μg/kg) or PCN (10 mg/kg) by intraperitoneal injection for 3 days, and the livers from three animals per group combined and used to prepare microsomes or to isolate total RNA. FIG. 6A: Samples of liver microsomal protein (10 μg) was separated by SDS-polyacrylamide gel electrophoresis, and immunoblot analysis performed using UGT1A1-, UGT1A4 or UGT1A6-antibodies. FIG. 6B: Total liver RNA (4 μg) was used in reverse transcription reactions followed by PCR analysis using isozyme-specific oligonucleotides.

human UGT1A4 = conditions: for UGT1A4 protein induction: small and large intestine
Text: (§7) Microsomal Protein Isolation from Transgenic Mouse Tissues. Using three animals per group, the liver, small and large intestinal tissues were collected from Tg-UGT1 and wild type mice. For the small and large intestine, the tissue was dissected open lengthwise and the luminal surface gently rinsed in 1.15% KCl before freezing on dry ice. Tissue samples from each treatment group were combined and frozen in liquid nitrogen in a porcelain mortar and pulverized under liquid nitrogen. A sample of the pulverized tissue was added to 5 volumes of 1.15% ice cold KCl and the tissue homogenized using a motorized glass-teflon homogenizer. The tissue homogenate was first centrifuged at 2,000×g for 10 min at 4° C. and the supernatant was collected. The supernatant was then centrifuged at 9,000×g for 10 min at 4° C. and this resulting supernatant centrifuged at 100,000×g for 60 min at 4° C. The pellet was resuspended in buffer (50 mM Tris-HCl pH 7.4, 10 mM MgCl2, 1 mM PMSF) and the protein concentration determined by the Bradford method.
as §4, §5, §6
(§8) Induction of the UGT1 locus in liver by PCN and TCDD. […] Wild type and Tg-UGT^1c mice were treated every 24 hours with TCDD (16 μg/kg) or PCN (10 mg/kg) by intraperitoneal injection for 3 days, and the livers from three animals per group combined and used to prepare microsomes or to isolate total RNA.

human UGT1A1 = conditions: for UGT1A1 protein induction: small and large intestinal microsomes, TCDD 16 μg/kg or PCN
Text: as §7, §4, §5, §6, §8

human UGT1A6 = conditions: for UGT1A6 protein regulation: small and large intestine
Text: as §7, §4, §5, §6, §8

mouse Cyp1a1 = assay: Cyp1a1 Western blot in primary hepatocytes from Tg-UGT1c mice; format: cell-based
Text: Isolation and treatment of mouse transgenic primary hepatocytes. […] Mice were anesthetized by isoflurane inhalation.
Control hepatocyte cultures contained only DMSO (D).

[4] = test system: UGT1A gene transcripts (human UGT1 locus); assay: Isoform-specific RT-PCR of UGT1A gene transcripts in tissues of treated Tg-UGT1c mice; format: in vivo, mouse; conditions: liver and small intestine, UGT1+/- mice treated with TCDD
[5] = Tg-UGT1c mice, i.p. every 24 h for 3 days
[6] = liver microsomes, Tg-UGT1c mice, i.p. every 24 h for 3 days

| Structure (SMILES) | Induction of β-estradiol glucuronidation (β-estradiol UGT activity [1]) | UGT1A1 RNA induction ([3]; liver, Tg-UGT1c mice) | UGT1A4 RNA ([3]; liver, Tg-UGT1c mice) | UGT1A6 RNA induction ([3]; liver, Tg-UGT1c mice) | Expression of UGT1A1, UGT1A3, UGT1A4, UGT1A6 and UGT1A9 gene transcripts ([3]; liver, Tg-UGT1c mice) | UGT1A gene transcript induction ([3]; Tg-UGT1c mice) | UGT1A4 protein induction (human UGT1A4; [5]) | UGT1A1 protein induction (human UGT1A1; [5]) | UGT1A6 protein regulation (human UGT1A6; [5]) | other results |
| --- | --- | --- | --- | --- | --- | --- | --- | --- | --- | --- |
| CC(=O)[C@H]1[C@H](C#N)C[C@H]2[C@@H]3CC=C4C[C@@H](O)CC[C@]4(C)[C@H]3CC[C@@]21C [PCN, Pregnenolone-16α-carbonitrile] | induced β-estradiol glucuronidation significantly | significant induction | increase | induced | induce expression of each of these genes | induction of all of the UGT1A gene transcripts | inducible in small and large intestine | inducible | predominantly regulated only in large intestine | β-estradiol glucuronidation activity, induced level over induced level in WT mice (β-estradiol UGT activity [1]; small intestine microsomes, PCN treated Tg-UGT1c mice vs PCN treated WT mice): ~10 fold; Induction of β-estradiol glucuronidation (β-estradiol UGT activity [2]; large intestine microsomes): induced β-estradiol glucuronidation significantly; Induction of UGT activity (β-estradiol) (β-estradiol UGT activity [2]; small intestine microsomes): induced a minimal amount of UGT activity; Cyp3a11 mRNA induction (mouse Cyp3a11): induction; UGT1A1 induction, hepatocytes cultured in dexamethasone (UGT1A1): significant induction; Microsomal UGT1A4 protein induction (human UGT1A4; mouse, in vivo, ip): induction; Microsomal UGT1A1 protein induction (human UGT1A1; mouse, in vivo, ip): induction; Microsomal UGT1A6 protein induction (human UGT1A6; mouse, in vivo, ip): induction |
| Clc1cc2c(cc1Cl)Oc1cc(Cl)c(Cl)cc1O2 [TCDD, 2,3,7,8-Tetrachlorodibenzo-p-dioxin] | most significant induction | significant induction | increase | induced | induce expression of each of these genes | induction of all of the UGT1A gene transcripts | inducible in small and large intestine | inducible | predominantly regulated only in large intestine | UGT1A1 induction in presence of dexamethasone over the levels obtained only with TCDD treatment (UGT1A1; primary hepatocytes cultured in 0.1 μM dexamethasone and treated with TCDD): 10 fold and > 10 fold; UGT1A1 induction (UGT1A1; primary hepatocytes, compound alone, TCDD 10 nM 72 hours, PCN 10 μM, dexamethasone 0.1 μM): induction; UGT1A10 induction ([3]; liver, Tg-UGT1c mice): induce; also recorded: significantly induced; Regulation of UGT1A5, UGT1A7 and UGT1A8 ([3]; liver, Tg-UGT1 mice): not regulated; Mouse Cyp1a1 induction (mouse Cyp1a1; TCDD 72 hours): induction; Synergistic induction of Cyp1a1 in presence of glucocorticoids (mouse Cyp1a1; TCDD with 0.1 μM dexamethasone): did not observe a synergistic induction; Microsomal UGT1A4 protein induction (human UGT1A4; [6]): induction; Microsomal UGT1A1 protein induction (human UGT1A1; [6]): induction; Microsomal UGT1A6 protein induction (human UGT1A6; [6]): induction; Expression of 1A1 and 1A6 [4]: elevated expression |
